Source: publication PMC11601876, “Manganese-based type I collagen-targeting MRI probe for in vivo imaging of liver fibrosis” (Research Square, 2024)

Tests used:
[1] = Kinetic inertness: Mn2+ dissociation upon Zn2+ challenge; assay type: physicochemical; conditions: 0.5 mM Mn2+ (0.167 mM Mn-CBP20), 10 mM Zn(OTf)2, pH 7.4 50 mM Tris/18 mM citrate, 27 °C, monitored by r2 change at 1.4T
Description: Figure 2. In vitro assays for collagen binding and kinetic inertness.
To assess kinetic inertness to Mn^2+ release, we evaluated Mn^2+ dissociation kinetics upon challenge of 0.167 mM Mn-CBP20 (0.5 mM Mn^2+) with 10 mM Zn(OTf)2 in the presence of pH 7.4 50 mM Tris/ 18 mM citrate buffer, Figure 2B. The presence of a weak chelator such as citrate is required to maintain homogenous reaction conditions during the course of the measurement, as treatment of Mn-CBP20 with even 1 mol equiv. […] Mn^2+ dissociation was monitored by observing change in r2. Under this set of assay conditions, the r2 value associated with dissociated Mn^2+ (16.3 mM^−1s^−1) is approximately half that of Mn^2+ bound within Mn-CBP20. As positive control, we monitored Mn^2+ dissociation from the kinetically inert complex Mn-CDTA (r2 = 5.9 mM^−1s^−1).

[2] = rats; in words; cited from earlier work
Source text: Whole body PET-CT images recorded 1 and 7 days after [^52Mn]Mn-CBP20 injection are shown in Figure 6A and ex vivo ^52Mn biodistribution data are shown in Figure 6B and 6C and also tabulated in Supplementary Tables 1 and 2. The highest concentration of ^52Mn 1 day after injection is found in the kidneys, consistent with the expected renal elimination of the compound.

Molecule | half-life (t1/2) of Mn2+ dissociation [1] | 52Mn uptake in salivary glands relative to other tissues [2]
O=C([O-])CN(CC(=O)[O-])C1CCCCC1N(CC(=O)[O-])CC(=O)[O-].[Mn+2] (centres unmarked) [Mn-CDTA] | 15.5 h | –
Mn-DPDP | – | high and persistent ^52Mn uptake in the salivary glands relative to other tissues
